Biological target: T1, SHP2 protein (Homo sapiens, UniProt Q06124)
T1 sequence (Q06124 1-593): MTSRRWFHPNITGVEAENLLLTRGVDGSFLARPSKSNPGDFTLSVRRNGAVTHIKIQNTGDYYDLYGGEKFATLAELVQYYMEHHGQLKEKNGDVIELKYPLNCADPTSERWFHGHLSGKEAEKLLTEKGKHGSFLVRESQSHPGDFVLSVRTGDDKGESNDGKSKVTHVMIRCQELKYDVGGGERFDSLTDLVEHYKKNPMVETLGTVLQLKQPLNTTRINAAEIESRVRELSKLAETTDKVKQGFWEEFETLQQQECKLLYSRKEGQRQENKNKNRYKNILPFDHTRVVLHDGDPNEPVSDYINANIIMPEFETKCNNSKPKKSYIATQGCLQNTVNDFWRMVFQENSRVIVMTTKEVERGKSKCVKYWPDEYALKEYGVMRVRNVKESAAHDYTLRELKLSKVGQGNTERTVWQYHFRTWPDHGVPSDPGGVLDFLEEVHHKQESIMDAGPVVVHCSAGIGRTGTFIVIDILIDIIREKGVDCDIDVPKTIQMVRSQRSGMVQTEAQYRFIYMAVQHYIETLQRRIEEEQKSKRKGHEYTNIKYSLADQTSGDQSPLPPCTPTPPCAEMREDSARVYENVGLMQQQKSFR
Assay: Measurement of SHP2 protein degradation in MV-4-11 cells (western blotting)
Assay type: cell-based
Parameters: endogenous in cells; host or cells: MV-4-11
Procedure: Experimental Example 2: Measurement of SHP2 Protein Degradation in MV-4-11 Cells
MV-4-11 cells were treated with the synthesized Example compound, and the amount of SHP2 protein present in the cells was measured using western blotting detection. The protocol of the experiment conducted using MV-4-11 cells was as follows:
[Culture] MV-4-11 cells resuspended in IMDM MEDIUM (Hyclone, SH30228.01) containing 5% FBS (Hyclone, SV30207.02) and 1% Penicillin-streptomycin (Welgene, LS 202-02) were seeded at a density of 1×10^6/mL/well in a 12-well plate in an amount of 1 ml each.
[Compound treatment] The 12-well plate was treated as follows: Cells were treated with compounds at a final concentration of […] made by serial dilution of 10 mM stock with DMSO in 1/100 increments […]. After 24 hours, cells were harvested. For the negative control group, DMSO diluted 1/100 to the media (3 mL DMSO+297 mL media) was added.
[Harvest] Each well was collected in a 1.5 mL microtube by pipetting with a 1 mL pipette and centrifuged (500 g, 5 min, 4° C.). The supernatant was removed. It was washed with PBS, and then centrifuged again (500 g, 5 min, 4° C.). Thereafter, the supernatant was removed to prepare a pellet.
[Cell Lysis and Sample preparation] Lysis buffer was prepared as follows: […] of RIPA buffer (Biosesang, RC2038-050-00)+0.5 mM PMSF (SIGMA, P7626)+1× Protease/Phosphatase Inhibitor (Cell signaling, 5872S) per well was added and placed on ice for 30 minutes (vortexing at 0 and 30 minutes, respectively). After sonication process (10 seconds pulse, 30 seconds rest, 5 cycles, 70% amplification), centrifugation (15000 g, 15 min, 4° C.) was performed, and then only the supernatant was taken and transferred to a microtube. The sample was diluted ¼ with RIPA buffer in a 96-well plate, and mixed with A:B=50:1 of the BCA Protein Assay Kit (iNtRON, 21071). […] each of the mixture was left at 37° C. for 30 minutes, and cooled for 10 minutes. Then, absorbance was measured at 562 nm with the SYNERGY H1 microplate reader from BioTek. After making a sample by quantifying the protein with the measured value, boiling was performed at 70° C. for 10 minutes. At this time, the sample buffer used was a mixture of NuPAGE or Bolt 4× sample buffer (Invitrogen) and each 10× sample reducing agent according to the gel to be used, and RIPA buffer was used for protein dilution.
[Western blotting detection method] The same amount of sample was loaded on NuPAGE or Bolt Bis-tris 4-12% gradient gel and run (200 V, 35 minutes). It was transferred to 0.2 mm NC membrane with Trans-blot Turbo (BIO-RAD) (1.3 A constant, 25 V limit, 15 minutes). Blocking was performed at room temperature for 1 hour with Skim milk or Intercept Blocking Buffer (LI-COR, 927-60001):0.1% TBST=1:1. Anti-SHPTP2 Mouse (1:500 in 2% BSA/0.2% TBST, size: 70 kDa, Santacruz sc-7384) was incubated overnight at 4° C., and Anti-GAPDH Rabbit (1:2,000 in 2% BSA/0.2% TBST, size: 37 kDa, CST #2118) was incubated at room temperature for 1 hour 30 minutes or 3 hours. It was washed 3 times for 5 minutes each with 0.2% TBST washing buffer. Secondary antibody Anti-Rabbit IgG (1:5,000 in 2% BSA/0.2% TBST, CST), IRDye® 680RD Goat anti-Rabbit IgG Secondary Antibody (1:10,000 in 2% BSA/0.2% TBST, LI-COR 926-68071) were added and incubated for 45 minutes on a rocker at room temperature. It was washed 5 times for 5 minutes each with 0.2% TBST washing buffer and detected with LI-COR's Odyssey. At this time, SHPTP2 was detected using SuperSignal West Pico PLUS Chemiluminescent Substrate, and house-keeping genes were also detected.
In the results of Table 4 below, Compounds 1-7, 13-19, and 21-26 are results in KYSE-520 cells, and the others are results in MV-4-11 cells.

| SHP2 degradation (%) 10 nM (MV-4-11 cells, 24 hours) [%] | SHP2 degradation (%) 100 nM (MV-4-11 cells, 24 hours) [%] | SHP2 degradation (%) 1000 nM (MV-4-11 cells, 1000 nM, 24 hours) [%] | SHP2 protein degradation activity (in words) (comment on Table 4) | SMILES |
| --- | --- | --- | --- | --- |
| 75 | 95 |  |  | Cc1ncsc1-c1ccc(CNC(=O)[C@@H]2C[C@@H](O)CN2C(=O)[C@@H](NC(=O)C2(F)CC2)C(C)(C)C)c(OCC2CCN(C(=O)CC(=O)Nc3cccc(Sc4ncc(N5CCC(C)(CN)CC5)nc4N)c3Cl)CC2)c1 [Example 32, (2S,4R)—N-(2-((1-(3-((3-((3-amino-5-(4-(aminomethyl)-4-methylpiperidin-1-yl)pyrazin-2-yl)thio)-2-chlorophenyl)amino)-3-oxopropanoyl)piperidin-4-yl)methoxy)-4-(4-methylthiazol-5-yl)benzyl)-1-((S)-2-(1-fluorocyclopropane-1-carboxamido)-3,3-dimethylbutanoyl)-4-hydroxypyrrolidine-2-carboxamide] |
| 91.5 | 98.4 |  |  | Cc1ncsc1-c1ccc(CNC(=O)[C@@H]2C[C@@H](O)CN2C(=O)[C@@H](NC(=O)C2(F)CC2)C(C)(C)C)c(OC2CC3(CCN(C(=O)CC(=O)Nc4cccc(Sc5cnc(N6CCC(C)(CN)CC6)cn5)c4Cl)CC3)C2)c1 [Example 50, (2S,4R)—N-(2-((7-(3-((3-((5-(4-(aminomethyl)-4-methylpiperidin-1-yl)pyrazin-2-yl)thio)-2-chlorophenyl)amino)-3-oxopropanoyl)-7-azaspiro[3.5]nonan-2-yl)oxy)-4-(4-methylthiazol-5-yl)benzyl)-1-((S)-2-(1-fluorocyclopropane-1-carboxamido)-3,3-dimethylbutanoyl)-4-hydroxypyrrolidine-2-carboxamide] |
| 72 | 96 | 94.5 |  | Cc1ncsc1-c1ccc(CNC(=O)[C@@H]2C[C@@H](O)CN2C(=O)[C@@H](NC(=O)C2(F)CC2)C(C)(C)C)c(OCCN2CCN(C(=O)CC(=O)Nc3cccc(Sc4cnc(N5CCC(C)(CN)CC5)cn4)c3Cl)CC2)c1 [Example 52, (2S,4R)—N-(2-(2-(4-(3-((3-((5-(4-(aminomethyl)-4-methylpiperidin-1-yl)pyrazin-2-yl)thio)-2-chlorophenyl)amino)-3-oxopropanoyl)piperazin-1-yl)ethoxy)-4-(4-methylthiazol-5-yl)benzyl)-1-((S)-2-(1-fluorocyclopropane-1-carboxamido)-3,3-dimethylbutanoyl)-4-hydroxypyrrolidine-2-carboxamide] |
| 0.1 | 52.3 |  | somewhat decreased | Cc1ncsc1-c1ccc(CNC(=O)[C@@H]2C[C@@H](O)CN2C(=O)[C@@H](NC(=O)C2(F)CC2)C(C)(C)C)c(OCC2CCN(C(=O)C3(C(=O)Nc4cccc(Sc5cnc(N6CCC(C)(CN)CC6)cn5)c4Cl)CC3)CC2)c1 [Example 46, (2S,4R)—N-(2-((1-(1-((3-((5-(4-(aminomethyl)-4-methylpiperidin-1-yl)pyrazin-2-yl)thio)-2-chlorophenyl)carbamoyl)cyclopropane-1-carbonyl)piperidin-4-yl)methoxy)-4-(4-methylthiazol-5-yl)benzyl)-1-((S)-2-(1-fluorocyclopropane-1-carboxamido)-3,3-dimethylbutanoyl)-4-hydroxypyrrolidine-2-carboxamide] |

Second part, the compound before the results:

| SMILES | SHP2 degradation (%) 10 nM (MV-4-11 cells, 24 hours) [%] | SHP2 degradation (%) 100 nM (MV-4-11 cells, 24 hours) [%] | SHP2 degradation (%) 1000 nM (MV-4-11 cells, 1000 nM, 24 hours) [%] | SHP2 protein degradation activity (in words) (comment on Table 4) |
| --- | --- | --- | --- | --- |
| COC(=O)[C@@H]1CN(C(=O)CC(=O)Nc2cccc(Sc3cnc(N4CCC(C)(CN)CC4)cn3)c2Cl)CCN1CCOc1cc(-c2scnc2C)ccc1CNC(=O)[C@@H]1C[C@@H](O)CN1C(=O)[C@@H](NC(=O)C1(F)CC1)C(C)(C)C [Example 66, (S)-methyl 4-(3-((3-((5-(4-(aminomethyl)-4-methylpiperidin-1-yl)pyrazin-2-yl)thio)-2-chlorophenyl)amino)-3-oxopropanoyl)-1-(2-(2-(((2S,4R)-1-((S)-2-(1-fluorocyclopropane-1-carboxamido)-3,3-dimethylbutanoyl)-4-hydroxypyrrolidine-2-carboxamido)methyl)-5-(4-methylthiazol-5-yl)phenoxy)ethyl)piperazine-2-carboxylate] | 79 | 98.1 |  |  |
| CC(=O)N[C@H](C(=O)N1C[C@H](O)C[C@H]1C(=O)NCc1ccc(-c2scnc2C)cc1OCCCC1CCN(C(=O)CC(=O)Nc2cccc(Sc3cnc(N4CCC(C)(CN)CC4)cn3)c2Cl)CC1)C(C)(C)C [Example 43, (2S,4R)-1-((S)-2-acetamido-3,3-dimethylbutanoyl)-N-(2-(3-(1-(3-((3-((5-(4-(aminomethyl)-4-methylpiperidin-1-yl)pyrazin-2-yl)thio)-2-chlorophenyl)amino)-3-oxopropanoyl)piperidin-4-yl)propoxy)-4-(4-methylthiazol-5-yl)benzyl)-4-hydroxypyrrolidine-2-carboxamide] | 80.0 | 96.5 |  |  |
| Cc1ncsc1-c1ccc(CNC(=O)[C@@H]2C[C@@H](O)CN2C(=O)[C@@H](NC(=O)C2(F)CC2)C(C)(C)C)c(OCCN2CCN(c3cnc(C(=O)Nc4cccc(Sc5cnc(N6CCC(C)(CN)CC6)cn5)c4Cl)nc3)CC2)c1 [Example 83, N-(3-((5-(4-(aminomethyl)-4-methylpiperidin-1-yl)pyrazin-2-yl)thio)-2-chlorophenyl)-5-(4-(2-(2-(((2S,4R)-1-((S)-2-(1-fluorocyclopropane-1-carboxamido)-3,3-dimethylbutanoyl)-4-hydroxypyrrolidine-2-carboxamido)methyl)-5-(4-methylthiazol-5-yl)phenoxy)ethyl)piperazin-1-yl)pyrimidine-2-carboxamide] | 79.9 | 97.5 |  |  |
| Cc1ncsc1-c1ccc(CNC(=O)[C@@H]2C[C@@H](O)CN2C(=O)[C@@H](NC(=O)C2(F)CC2)C(C)(C)C)c(OCCN2CCN(c3ccc(C(=O)Nc4cccc(Sc5cnc(N6CCC(C)(CN)CC6)cn5)c4Cl)cn3)CC2)c1 [Example 82, N-(3-((5-(4-(aminomethyl)-4-methylpiperidin-1-yl)pyrazin-2-yl)thio)-2-chlorophenyl)-6-(4-(2-(2-(((2S,4R)-1-((S)-2-(1-fluorocyclopropane-1-carboxamido)-3,3-dimethylbutanoyl)-4-hydroxypyrrolidine-2-carboxamido)methyl)-5-(4-methylthiazol-5-yl)phenoxy)ethyl)piperazin-1-yl)nicotinamide] | 16.2 | 96.2 |  |  |
